Data on 27 compounds can be found in ChEMBL document CHEMBL1155214, “Structure-affinity relationships of glutamine mimics incorporated into phosphopeptides targeted to the SH2 domain of signal transducer and activator of transcription 3” (J Med Chem, 2009).

What is called IC50 is the concentration at which inhibition is half-maximal. Higher therefore signals weaker potency in that assay.

T1 sequence (P40763 whole entry, the tested form may be a part): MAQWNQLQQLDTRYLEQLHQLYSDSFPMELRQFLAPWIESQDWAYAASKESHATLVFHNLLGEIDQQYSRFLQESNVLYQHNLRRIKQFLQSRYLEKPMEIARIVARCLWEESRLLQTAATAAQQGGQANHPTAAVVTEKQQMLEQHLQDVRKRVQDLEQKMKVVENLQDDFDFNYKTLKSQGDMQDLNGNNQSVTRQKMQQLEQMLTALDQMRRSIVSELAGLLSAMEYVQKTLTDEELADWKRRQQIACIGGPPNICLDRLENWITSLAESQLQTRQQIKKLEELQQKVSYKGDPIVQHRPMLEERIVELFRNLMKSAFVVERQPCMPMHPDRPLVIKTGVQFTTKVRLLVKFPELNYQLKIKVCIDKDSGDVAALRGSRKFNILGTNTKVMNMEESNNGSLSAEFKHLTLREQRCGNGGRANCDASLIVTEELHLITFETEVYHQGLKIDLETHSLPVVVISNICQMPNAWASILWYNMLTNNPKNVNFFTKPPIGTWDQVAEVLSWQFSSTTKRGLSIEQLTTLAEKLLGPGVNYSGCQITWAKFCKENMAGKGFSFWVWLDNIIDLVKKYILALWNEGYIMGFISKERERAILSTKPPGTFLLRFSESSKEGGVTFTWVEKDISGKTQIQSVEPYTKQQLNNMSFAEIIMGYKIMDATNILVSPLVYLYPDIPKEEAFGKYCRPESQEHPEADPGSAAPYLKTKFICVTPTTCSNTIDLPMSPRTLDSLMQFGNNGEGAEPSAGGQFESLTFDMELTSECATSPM

The first test has as its target T1, Signal transducer and activator of transcription 3 (Homo sapiens, UniProt P40763). The experiment in a line: Inhibition of Stat3 SH2 domain by fluorescence polarization assay.
With `CC(C)C[C@H](NC(=O)/C=C/c1ccc(OP(=O)(O)O)cc1)C(=O)N1CCC[C@H]1C(=O)N[C@@H](CCC(N)=O)CN1CCOCC1`, the IC50 is 1530 nM.

With `CC(C)C[C@H](NC(=O)/C=C/c1ccc(OP(=O)(O)O)cc1)C(=O)N1C[C@H]2C[C@H]2[C@H]1C(=O)NCCOCc1ccccc1`, half-maximal inhibition (IC50) required 69 nM.

In turn, `CC(C)C[C@H](NC(=O)/C=C/c1ccc(OP(=O)(O)O)cc1)C(=O)N1C[C@H]2C[C@H]2[C@H]1C(=O)N[C@@H](CCC(N)=O)C(C)C` returned an IC50 of 511 nM.

The compound `CC(C)C[C@H](NC(=O)/C=C/c1ccc(OP(=O)(O)O)cc1)C(=O)N1CCC[C@H]1C(=O)N[C@@H](CCC(N)=O)CN1CCCCC1` had an IC50 of 1210 nM.

`CC(C)C[C@H](NC(=O)/C=C/c1ccc(OP(=O)(O)O)cc1)C(=O)N1C[C@H]2C[C@H]2[C@H]1C(=O)N[C@@H](CCC(N)=O)[C@@H](C)O` showed an IC50 of 437 nM.

In turn, `CC(C)C[C@H](NC(=O)/C=C/c1ccc(OP(=O)(O)O)cc1)C(=O)N1CCC[C@H]1C(=O)N[C@H](C)COC(N)=O` had an IC50 of 797 nM.

The compound `CC(C)C[C@H](NC(=O)/C=C/c1ccc(OP(=O)(O)O)cc1)C(=O)N1C[C@H]2C[C@H]2[C@H]1C(=O)N[C@H](C)CCC(N)=O` returned an IC50 of 175 nM.

As to `CC(C)C[C@H](NC(=O)/C=C/c1ccc(OP(=O)(O)O)cc1)C(=O)N1C[C@H]2C[C@H]2[C@H]1C(=O)NCCCC(N)=O`, the IC50 was 303 nM.

In turn, `CC(C)C[C@H](CCC(N)=O)NC(=O)[C@@H]1CCCN1C(=O)[C@H](CC(C)C)NC(=O)/C=C/c1ccc(OP(=O)(O)O)cc1` showed an IC50 of 4900 nM.

For the compound `CC(C)C[C@H](NC(=O)/C=C/c1ccc(OP(=O)(O)O)cc1)C(=O)N1C[C@H]2C[C@H]2[C@H]1C(=O)N[C@@H](CCC(N)=O)[C@@H](C)OCc1ccccc1` (mixture of isomers), the IC50 amounted to 69 nM.

For the compound `CC(=O)NC[C@H](CCC(N)=O)NC(=O)[C@@H]1CCCN1C(=O)[C@H](CC(C)C)NC(=O)/C=C/c1ccc(OP(=O)(O)O)cc1`, half-maximal inhibition (IC50) was put at 589 nM.

The compound `CC(C)C[C@H](NC(=O)/C=C/c1ccc(OP(=O)(O)O)cc1)C(=O)N1CCC[C@H]1C(=O)N[C@H](COCc1ccccc1)COC(N)=O` registered an IC50 of 454 nM.

As to `CC(C)C[C@H](NC(=O)/C=C/c1ccc(OP(=O)(O)O)cc1)C(=O)N1C[C@H]2C[C@H]2[C@H]1C(=O)N[C@@H](CCC(N)=O)COCc1ccccc1`, 94 nM corresponded to half-maximal inhibition (IC50).

Compound `CCCC[C@H](CCC(N)=O)NC(=O)[C@@H]1CCCN1C(=O)[C@H](CC(C)C)NC(=O)/C=C/c1ccc(OP(=O)(O)O)cc1` registered an IC50 of 1350 nM.

On to `CC(C)C[C@H](NC(=O)/C=C/c1ccc(OP(=O)(O)O)cc1)C(=O)N1CCC[C@H]1C(=O)N[C@@H](CCC(N)=O)COC(N)=O`, for which the IC50 turned out to be 615 nM.

Turning to `CC(C)C[C@H](CCC(N)=O)NC(=O)[C@@H]1[C@@H]2C[C@@H]2CN1C(=O)[C@H](CC(C)C)NC(=O)/C=C/c1ccc(OP(=O)(O)O)cc1`, the IC50 worked out at 1630 nM.

With `CC(C)C[C@H](NC(=O)/C=C/c1ccc(OP(=O)(O)O)cc1)C(=O)N1CCC[C@H]1C(=O)N[C@@H](CCC(N)=O)CN(Cc1ccccc1)Cc1ccccc1`, half-maximal inhibition (IC50) was put at 1080 nM.

On to `CC(C)C[C@H](NC(=O)/C=C/c1ccc(OP(=O)(O)O)cc1)C(=O)N1CCC[C@H]1C(=O)NCCNC(N)=O`, for which the IC50 turned out to be 131 nM.

The compound `CC(C)C[C@H](NC(=O)/C=C/c1ccc(OP(=O)(O)O)cc1)C(=O)N1CCC[C@H]1C(=O)N[C@H](C)CNC(N)=O` gave an IC50 of 1350 nM.

`CC(C)C[C@H](NC(=O)/C=C/c1ccc(OP(=O)(O)O)cc1)C(=O)N1CCC[C@H]1C(=O)N[C@@H](CCC(N)=O)Cc1ccc(O)cc1`: the IC50 came out at 848 nM.

The compound `CC(C)C[C@H](NC(=O)/C=C/c1ccc(OP(=O)(O)O)cc1)C(=O)N1CCC[C@H]1C(=O)N[C@@H](CCC(N)=O)C(C)C` yielded an IC50 of 1880 nM.

In the case of `CC(C)C[C@H](NC(=O)/C=C/c1ccc(OP(=O)(O)O)cc1)C(=O)N1CCC[C@H]1C(=O)NCCOC(N)=O`, the IC50 came out at 360 nM.

As to `CC(C)C[C@H](NC(=O)/C=C/c1ccc(OP(=O)(O)O)cc1)C(=O)N1C[C@H]2C[C@H]2[C@H]1C(=O)N[C@@H](CCC(N)=O)C(=O)NCc1ccccc1`, the midpoint of inhibition, the IC50, lay at 68 nM.

On to `CC(C)C[C@H](NC(=O)/C=C/c1ccc(OP(=O)(O)O)cc1)C(=O)N1CCC[C@H]1C(=O)N[C@H](CN)CCC(N)=O`, for which the IC50 stood at 1240 nM.

As for `CC(C)C[C@H](NC(=O)/C=C/c1ccc(OP(=O)(O)O)cc1)C(=O)N1CCC[C@H]1C(=O)N[C@@H](CCC(N)=O)CN1CCN(C)CC1`, half-maximal inhibition (IC50) was put at 1310 nM.

The target in another test is T1, Signal transducer and activator of transcription 3. The test can be described thus: Ratio of compound IC50 to 4-(3-((S)-1-((S)-2-((S)-5-amino-1-(benzylamino)-1,5-dioxopentan-2-ylcarbamoyl)pyrrolidin-1-yl)-4-methyl-1-oxopentan-2-ylamino)-3-oxoprop-1-enyl)phenyl dihydrogen phosphate IC50 for Stat3 SH2 domain.
Turning to `CC(C)C[C@H](NC(=O)/C=C/c1ccc(OP(=O)(O)O)cc1)C(=O)N1CCC[C@H]1C(=O)N[C@@H](COC(N)=O)C(=O)NCc1ccccc1`, the Ratio IC50 worked out at 3.

With `CC(C)C[C@H](NC(=O)/C=C/c1ccc(OP(=O)(O)O)cc1)C(=O)N1CCC[C@H]1C(=O)N[C@H](C(=O)NCc1ccccc1)[C@@H](C)OC(N)=O`, the Ratio IC50 amounted to 6.
